Key:
[1] = tested on: CD154-induced NF-κB activation in CD40 sensor cells; test: CD40 sensor cell assay (HEK Blue CD40, SEAP reporter); format: cell-based, human; settings: for IC50: Homo sapiens, CD154 100 ng/mL, 24 h
From the text: (§1) As further confirmation of the inhibitory activity of our compounds, a cell-based assay was used with sensor cells (HEK Blue CD40) containing a secreted embryonic alkaline phosphatase (SEAP) reporter gene under the control of a promoter fused to a NF-κB binding site and transfected with CD40. […] For all tested compounds, the corresponding IC50 values are higher than those determined in the cell-free binding inhibition assay (Table 1) representing a loss of activity which is likely due to non-specific binding on account of the presence of proteins and cells in the assay, as well as hydrophobicity-related problems. Cytotoxicities were also evaluated in these same cells and at the same concentrations using a standard MTS assay to ensure that effects are present at non-toxic concentration levels.
CD40 expressing NF-κB sensor cells (HEK Blue, InvivoGen, San Diego, CA, USA) were used to assess the ability of the present compounds to block CD154-induced activation as described before. Briefly, cells were maintained in DMEM at 80% confluence for each experiment. Cells were trypsinized and re-suspended in the same medium without FBS and seeded on 96-well microtiter plates at a density of 50,000 cells/well in the absence and presence of various concentrations of compounds diluted in the same media. For ligand mediated stimulation, a concentration of recombinant human CD154 (100 ng/mL) found to induce an optimal response was maintained in the wells for this purpose. After 24 h of incubation at 37 °C, 40 μL supernatant of each well were taken and added to another 96-well microtiter plate containing 160 μL/well of QUANTI-Blue (InvivoGen). The level of SEAP was determined after 1 h of incubation at 37 °C by reading at 650 nm using a spectrophotometer. A monoclonal anti-human CD154 antibody (clone 40804, R&D Systems, Minneapolis, MN, USA) was used as a positive control at 240 nM concentration.
(§2) All binding inhibition and cell assays were tested in duplicate or triplicate per plates, and assays were performed as at least three independent experiments. As before, binding and cytotoxicity data were converted to percent inhibition and fitted with standard log inhibitor vs. normalized response models using nonlinear regression in GraphPad Prism (GraphPad, La Jolla, CA, USA) to establish half-maximal (median) inhibitory concentration (IC50) or median lethal concentration (LC50) values. Cell assay data were fitted with a similar model that also allowed for a variable slope using the log inhibitor vs. normalized response (variable slope) model from Prism with a Hill slope (n) shared across all compounds. Cell assays and draining lymph node data were analyzed by one-way repeated-measures analysis of variance (ANOVA) followed by Dunnett’s multiple comparison test as a post hoc test for individual differences using GraphPad Prism and a significance level of p < 0.05 for all comparisons.
Figure 5 Inhibition of CD154-induced NF-κB activation in CD40 sensor cells by compounds 6, 14, 15, and 18 in a concentration-dependent manner. Tartrazine (TZ) and an anti-CD154 antibody (mAb; single dose, 240 nM) were included as negative and positive controls, respectively. Data are average ± SD (normalized to CD154-activated cells alone) for n = 2 independent experiments with duplicates for each condition.

[2] = tested on: HEK Blue cells; test: MTS cytotoxicity assay in HEK Blue cells; format: cell-based; settings: LC50 (MTS) / NF-κB IC50 in sensor cells
From the text: as §1
(§3) For the MTS assay, HEK Blue cells were cultured and prepared in the same manner as in the CD40 sensor assay. Then cells were added to a 96-well microtiter plate at a density of 50,000 cells/well in the absence or presence of various concentrations of compounds diluted in the same media, without the addition of CD154. The plate was incubated at 37 °C for 24 h. 20 µL per well of MTS, 3-(4,5-dimethylthiazol-2-yl)-5-(3-carboxymethoxyphenyl)-2-(4-sulfophenyl)-2H-tetrazolium, (Promega, Madison, WI, USA) was added to the culture after treatments, and cells were incubated at 37 °C for 4 h. Formazan levels were measured using a plate reader at 490 nm.
as §2

[3] = MTS cytotoxicity assay in HEK Blue cells; format: cell-based; settings: human, HEK Blue CD40 sensor cells; HEK Blue cells, 24 h; read-out: LC50 (cytotoxicity, MTS)
From the text: as §1, §3, §2

[4] = target: T1, CD40–CD154 (CD40L) (Homo sapiens, UniProt P29965); set-up: method as in PMID 29024591; settings: 95% CI of 235–401; read-out: CD40–CD154 IC50 (previous assessment); cited from earlier work
T1 construct: purchased Enzo Life Sciences
T1 sequence (P29965 116-261 limits assumed): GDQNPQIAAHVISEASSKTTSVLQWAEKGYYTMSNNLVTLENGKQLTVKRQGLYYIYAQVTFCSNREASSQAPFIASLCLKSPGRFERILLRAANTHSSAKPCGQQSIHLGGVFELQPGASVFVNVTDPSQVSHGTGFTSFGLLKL

Row | SMILES | inhibition of CD154-induced NF-κB activation (qualitative) [1] | IC50 [1] [µM] | therapeutic index, TI = LC50/IC50 [2] | CC50 at 24 h [3] [µM] | IC50 [4] [µM]
1 | COC(=O)c1ccc(-c2ccc(C(=O)Nc3ccc(-c4ccc(C(=O)Nc5cccc6cccc(S(=O)(=O)O)c56)cc4)cc3)cc2)cc1 [Compound 15, 8-(4′-(4′-(Methoxycarbonyl)-[1,1′-biphenyl]-4-carboxamido)-[1,1′-biphenyl]-4-carboxamido)naphthalene-1-sulfonic acid] | concentration-dependent inhibition | 6 | – | – | –
2 | O=C(Nc1ccc(-c2ccc(C(=O)Nc3cccc4cccc(S(=O)(=O)O)c34)cc2)nc1)c1ccc([N+](=O)[O-])cc1 [Compound 18, 8-(4-(5-(4-Nitrobenzamido)pyridin-2-yl)benzamido)naphthalene-1-sulfonic acid] | concentration-dependent inhibition | 8.7 | 15 | 131 | –
3 | O=C(Nc1ccc(-c2ccc(C(=O)Nc3cccc4cccc(S(=O)(=O)O)c34)cc2)cc1)c1ccc([N+](=O)[O-])cc1 [Compound 6, 8-(4′-(4-Nitrobenzamido)biphenyl-4-ylcarboxamido)naphthalene-1-sulfonic acid] | concentration-dependent inhibition | 19.9 | – | – | 0.307

— paper PMC5978685, “Design, Synthesis, and Evaluation of Novel Immunomodulatory Small Molecules Targeting the CD40–CD154 Costimulatory Protein-Protein Interaction” (Molecules : A Journal of Synthetic Chemistry and Natural …, 2018)
